Numbers after ± are expanded uncertainties.
Details: Liquid, Ebulliometric method (Recirculating still)

## C=C(C)C(C)C [2,3-dimethyl-1-butene]
  Normal boiling temperature: 55.73 ± 0.2 °C

## CC(C)=C(C)C [2,3-dimethyl-2-butene]
  Normal boiling temperature: 73.00 ± 0.21 °C

## CCC(C)C [2-methylbutane]
  Normal boiling temperature: 28.00 ± 0.2 °C

## CCCCCCC [heptane]
370.27 K
  vapor or sublimation pressure: 97.43 ± 0.14 kPa
370.74 K
  vapor or sublimation pressure: 98.52 ± 0.15 kPa
370.93 K
  vapor or sublimation pressure: 99.39 ± 0.17 kPa
371.13 K
  vapor or sublimation pressure: 99.78 ± 0.16 kPa
371.52 K
  vapor or sublimation pressure: 101.07 ± 0.17 kPa
372.25 K
  vapor or sublimation pressure: 103.43 ± 0.11 kPa
372.36 K
  vapor or sublimation pressure: 103.56 ± 0.17 kPa
372.56 K
  vapor or sublimation pressure: 104.41 ± 0.15 kPa
372.76 K
  vapor or sublimation pressure: 104.67 ± 0.17 kPa
372.97 K
  vapor or sublimation pressure: 105.83 ± 0.19 kPa
373.17 K
  vapor or sublimation pressure: 106.29 ± 0.14 kPa
373.48 K
  vapor or sublimation pressure: 107.02 ± 0.14 kPa
  Normal boiling temperature: 98.49 ± 0.2 °C

## c1ccsc1 [thiophene]
  Normal boiling temperature: 84.27 ± 0.2 °C

Reference: the NIST ThermoML archive (doi:10.1016/j.fluid.2011.11.020)
